Measured values published in ChEMBL document CHEMBL5137081, “N-Heterocyclic 3-Pyridyl Carboxamide Inhibitors of DHODH for the Treatment of Acute Myelogenous Leukemia” (J Med Chem, 2022).

Tests used:
[1] = Intrinsic clearance in monkey hepatocytes measured per 10^6 cells; format: ADME, cell-based, Macaca mulatta, Hepatocyte; conditions: rhesus monkey
Cytochrome P450 1A2 = molecular target: T1, Cytochrome P450 1A2 (Homo sapiens, UniProt P05177); assay: Inhibition of CYP1A2 in human liver microsomes incubated for 10 mins by LC-MS/MS analysis; format: ADME, Microsome
T1 sequence (P05177 whole entry): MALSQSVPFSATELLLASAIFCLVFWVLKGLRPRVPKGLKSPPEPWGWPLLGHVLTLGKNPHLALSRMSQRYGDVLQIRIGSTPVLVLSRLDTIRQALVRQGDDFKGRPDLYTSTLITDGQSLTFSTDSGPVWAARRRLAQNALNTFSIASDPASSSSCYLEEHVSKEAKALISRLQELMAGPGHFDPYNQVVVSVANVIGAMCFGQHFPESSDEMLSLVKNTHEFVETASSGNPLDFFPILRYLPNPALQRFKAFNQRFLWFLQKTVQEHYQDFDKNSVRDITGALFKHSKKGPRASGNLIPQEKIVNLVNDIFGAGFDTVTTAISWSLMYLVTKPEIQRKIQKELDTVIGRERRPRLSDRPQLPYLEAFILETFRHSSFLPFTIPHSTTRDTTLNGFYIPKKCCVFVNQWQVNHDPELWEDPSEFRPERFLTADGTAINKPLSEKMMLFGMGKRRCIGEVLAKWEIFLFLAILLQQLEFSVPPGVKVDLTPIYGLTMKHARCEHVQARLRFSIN

Cytochrome P450 2C8 = molecular target: T2, Cytochrome P450 2C8 (Homo sapiens, UniProt P10632); assay: Inhibition of CYP2C8 in human liver microsomes incubated for 10 mins by LC-MS/MS analysis; format: ADME, Microsome
T2 sequence (P10632 whole entry): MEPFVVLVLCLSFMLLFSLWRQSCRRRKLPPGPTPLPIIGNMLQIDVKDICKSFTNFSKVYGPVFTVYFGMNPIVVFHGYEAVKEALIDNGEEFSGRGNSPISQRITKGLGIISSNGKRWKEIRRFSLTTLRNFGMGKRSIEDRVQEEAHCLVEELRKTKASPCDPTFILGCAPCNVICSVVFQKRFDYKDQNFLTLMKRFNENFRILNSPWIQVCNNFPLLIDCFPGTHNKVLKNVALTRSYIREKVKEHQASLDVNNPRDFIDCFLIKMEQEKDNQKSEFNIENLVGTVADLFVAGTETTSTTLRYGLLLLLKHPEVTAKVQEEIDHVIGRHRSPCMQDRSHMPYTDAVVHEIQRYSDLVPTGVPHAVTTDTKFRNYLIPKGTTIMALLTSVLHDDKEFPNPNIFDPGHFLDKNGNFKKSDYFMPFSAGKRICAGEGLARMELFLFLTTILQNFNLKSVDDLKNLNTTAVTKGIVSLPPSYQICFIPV

Cytochrome P450 2D6 = Cytochrome P450 2D6 (Homo sapiens, UniProt P10635); assay: Inhibition of CYP2D6 in human liver microsomes incubated for 10 mins by LC-MS/MS analysis; format: ADME, Microsome
Cytochrome P450 2D6, sequence (P10635 whole entry): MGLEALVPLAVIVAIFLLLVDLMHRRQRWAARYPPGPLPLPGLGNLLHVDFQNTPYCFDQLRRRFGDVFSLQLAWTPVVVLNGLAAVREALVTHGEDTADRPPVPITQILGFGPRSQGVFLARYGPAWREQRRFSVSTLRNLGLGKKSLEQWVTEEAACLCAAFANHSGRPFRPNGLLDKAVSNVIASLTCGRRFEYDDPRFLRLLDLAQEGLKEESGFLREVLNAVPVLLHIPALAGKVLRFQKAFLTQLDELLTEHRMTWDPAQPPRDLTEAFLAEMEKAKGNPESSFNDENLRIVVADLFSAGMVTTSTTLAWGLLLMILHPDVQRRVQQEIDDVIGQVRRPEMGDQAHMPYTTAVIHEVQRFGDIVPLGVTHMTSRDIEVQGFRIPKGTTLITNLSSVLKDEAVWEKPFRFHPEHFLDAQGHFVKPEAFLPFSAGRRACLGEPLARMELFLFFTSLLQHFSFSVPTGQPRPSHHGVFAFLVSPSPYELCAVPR

[2] = Half life in C57BL/6 mouse at 10 mg/kg, po or 2 mg/kg, iv measured upto 24 hrs by LC-MS/MS analysis; format: ADME, organism-based; conditions: in vivo
MOLM-13 [3] = assay: Antitumor activity against human MOLM-13 cells xenografted in NSG mouse assessed as tumor growth inhibition at 10 mg/kg, po qd administered for 5 days relative to control; format: functional; conditions: MOLM-13, 120 h, time 5 day, read-out: TGI
MOLM-13 [4] = assay: Antitumor activity against human MOLM-13 cells xenografted in NSG mouse assessed as tumor growth inhibition at 20 mg/kg, po qd administered for 5 days relative to control; format: functional; conditions: MOLM-13, 120 h, time 5 day, read-out: TGI
[5] = Toxicity in NSG mouse xenografted with human MOLM-13 cells assessed as change in body weight at 10 to 20 mg/kg, po qd administered for 5 days; format: organism-based; conditions: in vivo, 120 h, dose 10-20 mg/kg, time 5 day
MDR1 = assay: Efflux ratio of apparent permeability across basolateral to apical side over apical to basolateral side in dog MDCK-MDR1 cells; format: ADME, cell-based, Canis lupus familiaris
MOLM-13 [6] = assay: Antitumor activity against human MOLM-13 cells xenografted in NSG mouse assessed as tumor growth inhibition at 1.9 mg/kg, po qd administered for 5 days relative to control; format: functional; conditions: time 5 day
MOLM-13 [7] = assay: Antitumor activity against human MOLM-13 cells xenografted in NSG mouse assessed as tumor growth inhibition at 3.75 mg/kg, po qd administered for 5 days relative to control; format: functional; conditions: time 5 day
MOLM-13 [8] = assay: Antitumor activity against human MOLM-13 cells xenografted in NSG mouse assessed as tumor growth inhibition at 7.5 mg/kg, po qd administered for 5 days relative to control; format: functional; conditions: time 5 day
[9] = Toxicity in NSG mouse xenografted with human MOLM-13 cells assessed as change in body weight at 1.5 to 7.9 mg/kg, po qd administered for 5 days; format: organism-based; conditions: in vivo, 120 h, dose 1.5-7.9 mg/kg, time 5 day

Structure (SMILES)	CLH [1] [µL/min/1e6 cells]	IC50 (Cytochrome P450 1A2) [µM]	IC50 (Cytochrome P450 2C8) [µM]	IC50 (Cytochrome P450 2D6) [µM]	half-life [2] [h]	inhibition in vivo at 10 mg/kg (MOLM-13 [3]) [%]	inhibition in vivo at 20 mg/kg (MOLM-13 [4]) [%]	Activity [5]	efflux ratio (MDR1)	TGI (MOLM-13 [6]) [%]	TGI (MOLM-13 [7]) [%]	TGI (MOLM-13 [8]) [%]	Activity [9]
CCn1c(CO)nn(-c2nc(O[C@@H](C)C(F)(F)F)c(C(=O)Nc3c(C)ccnc3Cl)cc2F)c1=O	4	> 10	> 10	> 10	2.3	44	60	Non-Toxic					
CCn1c(CO)nn(-c2nc(O[C@@H](C)C(F)(F)F)c(C(=O)Nc3c(C)cnc(OC)c3Cl)cc2F)c1=O	5.3	> 10	> 10	> 10	5				> 30	71	76	79	Non-Toxic
